{"source": "a melting point compilation (Tetko et al.; mined from patent text by program, amines drawn as free bases though some values may be those of a salt)", "data": [{"units": {"melting point": "°C"}, "values": [{"smiles": "CCCCCNC(=O)N(C)c1cccc(-c2ccc(C=C(C)C(=O)O)cc2OCCCC)c1", "melting point": "87 to 89"}, {"smiles": "CC(c1ccc(C#N)nc1)C(O)(Cn1cncn1)c1ccc(F)cc1F", "note": "(stereo not given)", "melting point": "136 to 141"}, {"smiles": "Cc1nc(CC(C)C)c(CN)c(-c2ccc(Cl)cc2)c1C(=O)OC(C)(C)C", "melting point": "81 to 83"}, {"smiles": "CN1C(C(=O)Nc2ccccc(O)c2=O)=C(O)c2ccccc2S1(=O)=O", "melting point": "294 to 296"}, {"smiles": "CSc1ncc2cc(Oc3ccc(F)cc3F)c(NC(=O)NC(C)(C)C)nc2n1", "melting point": "195 to 201"}, {"smiles": "O=C(OCc1ccccc1)C(C(=O)OCc1ccccc1)c1ncc(C(F)(F)F)cc1[N+](=O)[O-]", "melting point": "82 to 84"}, {"smiles": "CCO[C@H]1C(C(=O)NCc2ccc(Cl)cc2)=C(C)OC(OCC)(OCC)[C@H]1C", "note": "(relative stereo)", "melting point": "97 to 100"}, {"smiles": "CCOC(=O)c1nc2ccccc2c(=O)n1C", "melting point": "48 to 50"}, {"smiles": "CS(=O)(=O)c1ccc(C2=C(c3ccc(F)cc3)C(=O)OC2)cc1", "melting point": "166 to 167"}, {"smiles": "O=C1c2ccc(F)cc2C(=O)N1c1ccc(Cl)cc1F", "melting point": "122 to 123"}, {"smiles": "O=C(O)c1cc([N+](=O)[O-])cn1C1CCCC1", "melting point": "195 to 198"}, {"smiles": "CCCCCCCCCCCCCCCCCCn1c(C)c(CC(=O)NN)c2cc(OC)ccc21", "melting point": "121 to 123"}, {"smiles": "OCc1n[nH]c(-c2ccc(CN3CCCCCC3)s2)n1", "melting point": "159 to 161"}, {"smiles": "Cc1ccccc1Cc1cccc(-c2ncc3c(n2)CCOC3)n1", "melting point": "132 to 133"}, {"smiles": "CC1CCCCc2ncc(C#N)c(=O)n21", "note": "(stereo not given)", "melting point": 154}, {"smiles": "O=C(O)c1snc(-c2cc(C(F)(F)F)cc(C(F)(F)F)c2)c1C(=O)O", "melting point": "193 to 194"}, {"smiles": "O=C(O)CCc1cn(Cc2ccccc2)c2ccccc12", "melting point": "110 to 112"}, {"smiles": "Cc1ccc(C2c3c(C)c4c(c(C)c3OC2(C)C)CCN4)cc1", "note": "(stereo not given)", "melting point": "135 to 136"}, {"smiles": "N#CN1CCC(c2nn(-c3ccccc3)c3ccc(F)cc23)CC1", "melting point": "137 to 139"}, {"smiles": "CC(C)(C)OC(=O)N1CC2CCCCC(C1)C2=O", "melting point": "50 to 52"}, {"smiles": "O=c1[nH]c2cc(C(F)(F)F)ccc2n(CCc2ncc[nH]2)c1=O", "melting point": "> 250"}, {"smiles": "COc1ccc2c(c1)nc(COc1ccc(CC3SC(=O)NC3=O)cc1)n2C", "note": "(stereo not given)", "melting point": "209 to 210"}, {"smiles": "Cc1cccc(C)c1NC(=O)N=C1CCCCCN1C", "melting point": "128 to 130"}, {"smiles": "CC(=Cc1cn(C)c2ccc3c(c12)CCCO3)[N+](=O)[O-]", "melting point": "200 to 202"}, {"smiles": "Cc1cc(F)nc(-c2ccc(F)cc2)c1", "melting point": 49}, {"smiles": "O=C(NC1CCn2c(CCc3ccccc3)nc3cccc1c32)c1ccccn1", "note": "(stereo not given)", "melting point": 173}, {"smiles": "CCCCCC(C)C(C)c1cc(O)cc(OC(NC(C)=O)c2ccccc2)c1", "note": "(stereo not given)", "melting point": "196 to 199"}, {"smiles": "O=C(COc1ccc(CCC(=O)C(F)(F)F)cc1)NC(c1ccc(Cl)cc1)c1ccc(Cl)cc1", "melting point": "145 to 146"}, {"smiles": "CCOc1ccc(S(=O)(=O)N(CCO)c2ccccc2/C=C/c2ccncc2)cc1", "melting point": "167 to 169"}, {"smiles": "COC(=O)c1sc2ccc(SC)cc2c1N(C)C", "melting point": "63 to 66"}, {"smiles": "O=C1N(Cc2ccccc2)Cc2cccnc2N1c1cccc([N+](=O)[O-])c1", "melting point": "144 to 145"}, {"smiles": "COc1ccc2oc(-c3ccccc3)c(C)c2c1", "melting point": "106 to 107"}, {"smiles": "C/C=C(/c1ccc(C(=O)O)cc1)c1ccc2c(c1)C(C)(C)CCC2(C)C", "melting point": 212}, {"smiles": "O=S(=O)(c1ccc(F)cc1)C(F)(F)C(F)(F)C(F)(F)C(F)(F)S(=O)(=O)c1ccc(F)cc1", "melting point": "126 to 127"}, {"smiles": "CC(C)(C)c1ccc(CSc2ccc3c(c2)OCC(=O)N3)cc1", "melting point": "134 to 136"}, {"smiles": "CC(C)C(C)(C)NC(N)=O", "melting point": "175 to 176"}, {"smiles": "Oc1ccc2ccccc2c1C1NCCc2ccccc21", "note": "(stereo not given)", "melting point": "148 to 150"}, {"smiles": "CCC(=C(c1ccc(O)cc1)c1ccc(O)cc1)c1cccc(/C=C/C(=O)O)c1", "melting point": "280 to 281"}, {"smiles": "O=S(=O)(Nc1ccc(Cl)cc1-c1cc(-c2ccc(F)cc2F)on1)C(F)(F)F", "melting point": "117 to 119"}, {"smiles": "Cn1c(CC(C)(C)C(=O)O)c(C(=O)c2ccc(Cl)cc2)c2ccc(OCc3ccc4ccccc4n3)cc21", "melting point": "203 to 205"}]}]}
